Test results reported in PubChem BioAssay (NCI).
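Where inhibition never reached the appropriate level, the endpoint shown equals the highest concentration tested. Otherwise, values were interpolated linearly from a five-concentration, 48-hour dose response in 96-well plates. At the GI50, growth is halved. TGI marks complete inhibition of growth.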

How the values were obtained:
Assay in all cases: NCI anticancer screen, dose series, 48 h
[1] = tested on: LOX IMVI melanoma
[2] = tested on: OVCAR-5 ovarian
[3] = tested on: RXF 393 renal
[4] = tested on: HCC-2998 colon
[5] = tested on: SW-620 colon
[6] = tested on: HOP-92 NSCLC
[7] = tested on: OVCAR-8 ovarian
[8] = tested on: IGROV1 ovarian
[9] = tested on: UACC-62 melanoma
[10] = tested on: TK-10 renal

| SMILES | TGI [1] | TGI [2] | TGI [3] | TGI [4] | TGI [5] | TGI [6] | TGI [7] | TGI [8] | TGI [9] | TGI [10] | GI50 [1] | GI50 [2] | GI50 [3] | GI50 [4] | GI50 [5] | GI50 [6] | GI50 [7] | GI50 [8] | GI50 [9] | GI50 [10] |
| --- | --- | --- | --- | --- | --- | --- | --- | --- | --- | --- | --- | --- | --- | --- | --- | --- | --- | --- | --- | --- |
| Cc1cc(Cl)ccc1NC(=O)C(=O)C(C(=O)c1ccccc1)C1OC(=O)c2ccccc21 (stereo unspecified) | > 100 µM | > 100 µM | > 100 µM | > 100 µM | > 100 µM | > 100 µM | > 100 µM | > 100 µM | > 100 µM | > 100 µM |  |  |  |  |  |  |  |  |  |  |
| C=C1C(=O)O[C@H]2[C@H]1CC/C(COC(=O)NCCCCCCCCNC(=O)OC/C1=C/CC[C@@]3(C)O[C@H]3[C@H]3OC(=O)C(=C)[C@@H]3CC1)=C\CC[C@@]1(C)O[C@@H]21 | 0.368 µM | 0.912 µM | 0.322 µM | 2.52 µM | 0.686 µM | 0.551 µM | 1.24 µM | 2.61 µM | 0.488 µM | 0.855 µM | 0.178 µM | 0.269 µM | 0.162 µM | 1.2 µM | 0.239 µM | 0.177 µM | 0.326 µM | 1.01 µM | 0.197 µM | 0.284 µM |
| C#Cc1cccc(NC(=O)c2ccc(NC(=O)CCl)cc2)c1 | 23.5 µM | > 82.5 µM | > 82.5 µM | > 82.5 µM | 34 µM | 26.4 µM | > 82.5 µM | 23.7 µM | > 82.5 µM | > 82.5 µM | 11.2 µM | 21.4 µM | 23.9 µM | > 82.5 µM | 15.7 µM | 11.4 µM | 22.5 µM | 10.6 µM | 36.9 µM | 42.7 µM |
| CCN(Cc1ccc(F)cc1)c1ccc(CO)c(OC)c1 | > 100 µM | 12.2 µM | 23.6 µM | > 60.5 µM | > 100 µM | 37.2 µM | > 64.5 µM | 27.8 µM | 17.3 µM | 16.8 µM | 27.8 µM | 2.64 µM | 9.44 µM | 21.9 µM | 21.1 µM | 7.29 µM | 19.2 µM | 6.62 µM | 4.14 µM | 2.14 µM |
| CCOCc1cc(=O)c2c(OC)cc3c(c2o1)CCC(C)(C)O3 | > 100 µM | > 100 µM | > 100 µM | > 100 µM | > 100 µM | > 100 µM | > 100 µM | > 100 µM | > 100 µM | > 100 µM |  |  |  |  |  |  |  |  |  |  |
| COCc1c(-c2ccc(NC(=O)Nc3cc(C(F)(F)F)ccc3F)c(F)c2)c2c(N)ncnn2c1CN1CCOCC1 | 5.77 µM | > 10 µM | 1.43 µM | 7.33 µM | > 10 µM | 5.97 µM | > 10 µM | 7.06 µM | > 10 µM | 7.53 µM | 1.36 µM | 3.32 µM | 0.236 µM | 2.84 µM | 2.58 µM | 0.382 µM | 2.66 µM | 0.438 µM | 1.34 µM | 1.29 µM |
| COC(=O)C(/C(=N\NC(N)=S)C(=O)Nc1ccccc1[N+](=O)[O-])c1cnc2ccccc2n1 (stereo unspecified) | > 100 µM | > 100 µM | > 100 µM | > 100 µM | > 100 µM | > 100 µM | > 100 µM | > 100 µM | > 100 µM | > 100 µM |  |  |  |  |  |  |  |  |  |  |
| COc1ccc(N(C)c2nc(Cl)nc3cnn(C)c23)cc1 | > 100 µM | > 100 µM | > 100 µM | > 59.7 µM | > 100 µM | 7.95 µM | > 100 µM | > 100 µM | > 100 µM | > 100 µM | < 0.011 µM | 0.0379 µM | < 0.01 µM | 0.0285 µM | < 0.01 µM | < 0.01 µM | 0.0192 µM | < 0.0189 µM | < 0.01 µM | > 68.6 µM |
| Cc1ccc(S(=O)(=O)Nc2ccc(-c3cc(-c4cccc(F)c4)c(C#N)c(N)n3)cc2)cc1 | 3.66 µM | 3.46 µM | 2.79 µM | 3.28 µM | 4.4 µM | 2.37 µM | 7.83 µM | 2.75 µM | 3.44 µM | 3.17 µM | 1.82 µM | 1.73 µM | 1.44 µM | 1.72 µM | 2 µM | 1.06 µM | 2.43 µM | 1.35 µM | 1.52 µM | 1.66 µM |
| N#CC1C(=O)NC(c2ccccc2[N+](=O)[O-])c2sc3c(F)cccc3c21 (stereo unspecified) | 37.8 µM | 4.45 µM | 56.9 µM | 32.7 µM | > 100 µM | 47.3 µM | 80.9 µM | 5.11 µM | 4.27 µM | 60.6 µM | 15.9 µM | 0.583 µM | 13.4 µM | 10.1 µM | 0.366 µM | 11.3 µM | 9.59 µM | 0.0549 µM | 0.341 µM | 11.5 µM |
| Cc1ccc2nc(NC(=O)/C(=N\NC(=S)NN)C3C(=O)NC(=S)NC3=O)sc2c1 | > 100 µM | > 100 µM | > 100 µM | > 100 µM | > 100 µM | > 100 µM | > 100 µM | > 100 µM | > 100 µM | > 100 µM |  |  |  |  |  |  |  |  |  |  |
| Nc1ncnc2c1ccn2[C@@H]1O[C@H]([C@H](O)c2ccc(Cl)c(F)c2)[C@@H](O)[C@H]1O | > 100 µM | > 100 µM | > 100 µM | > 100 µM | > 100 µM | > 100 µM | > 100 µM | > 100 µM | > 100 µM | > 100 µM | > 100 µM | > 100 µM | 66.5 µM | > 100 µM | > 100 µM | > 100 µM | > 100 µM | 48.6 µM | > 100 µM | > 100 µM |
| C/C(=N/N=C(N)N)c1ccc(NC(=O)Nc2ccc(/C(C)=N/N=C(N)N)cc2)cc1 | > 70.1 µM | 56.6 µM | 42.4 µM | 81.5 µM | > 100 µM | 33.8 µM | > 78.8 µM | 23.9 µM | 45.3 µM | 33.8 µM | 21.5 µM | 17.9 µM | 20.3 µM | 23.4 µM | 48.8 µM | 14.2 µM | 21.8 µM | 7.47 µM | 17.4 µM | 6.2 µM |
| c1ccc(N/N=C2\NN=C(c3ccccc3)CS2)cc1 | 15.3 µM | 41.8 µM | 25.1 µM | 19.3 µM | 29.9 µM | 31.9 µM | 19.7 µM | 32.3 µM | 21.5 µM | 26.5 µM |  |  |  |  |  |  |  |  |  |  |
| Cc1nccc2c3ccc(OCc4cn(-c5ccc(Cl)cc5)nn4)cc3n(CC(C)C)c12 | > 33.3 µM | 23.2 µM | 11.8 µM | > 33.3 µM | > 33.3 µM | 13.6 µM | 16.2 µM | 18.7 µM | 10.1 µM | 19.5 µM | 3.63 µM | 4.68 µM | 2.85 µM | 3.68 µM | 3.33 µM | 1.19 µM | 2.73 µM | 4.99 µM | 2.31 µM | 6.89 µM |
| O=C1C=CC2(C=C1)C[C@H](NC(=O)OCc1ccccc1)C(=O)O2 | 31.8 µM | 38.2 µM | 24.9 µM | 40.8 µM | 18.2 µM | 29.9 µM | 31.4 µM | 38.1 µM | 31.9 µM | 32.4 µM |  |  |  |  |  |  |  |  |  |  |
| COC(=O)[C@]12CC[C@@H](C)[C@H](C)[C@@H]1C1=CC[C@@H]3[C@@]4(C)C(C=O)=C[C@@](C)(COC(=O)/C=C/c5ccccc5)[C@@H]4[C@H](O)C[C@@]3(C)[C@]1(C)CC2 | 3.66 µM | 13.6 µM | 4.45 µM | 7.75 µM | 18.8 µM | 9.1 µM | 30.3 µM | 66.4 µM | 8.48 µM | 39.3 µM | 1.77 µM | 3.08 µM | 1.79 µM | 3.04 µM | 3.68 µM | 2.19 µM | 3.98 µM | 4.34 µM | 2.49 µM | 6.74 µM |
| O=[N+]([O-])c1ccc(Sc2ccncn2)c([N+](=O)[O-])c1 | 5.21 µM | 17.7 µM | 11.7 µM | 16.3 µM | 1.53 µM | 2.66 µM | 13.3 µM | 5.3 µM | 19.3 µM | 9.88 µM | 1.97 µM | 5.25 µM | 3.99 µM | 5.17 µM | 0.413 µM | 1.17 µM | 3.47 µM | 2.23 µM | 6.32 µM | 3.03 µM |
| O=C1C2C3C=CC(C2C(=O)N1CN1CCSCC1)C1C2C(=O)N(CN4CCSCC4)C(=O)C2C31 (stereo unspecified) | > 80.5 µM | > 100 µM | > 100 µM | > 100 µM | > 68.1 µM | > 100 µM | > 100 µM | > 100 µM | > 100 µM | > 100 µM |  |  |  |  | 50.5 µM |  |  |  |  |  |
| CSc1ccc(C(=O)/C=C/c2ccccc2Cl)cc1 | 19.2 µM | 31.6 µM | 16.4 µM | 28.7 µM | 28.7 µM | 32 µM | 32.5 µM | 17 µM | 33.5 µM | 41.5 µM | 6.08 µM | 16.1 µM | 4.23 µM | 13.1 µM | 4.95 µM | 15.5 µM | 15.8 µM | 4.56 µM | 15.7 µM | 18.4 µM |
